Values quoted from earlier work, collected in patent publication US20160296513A1 (Teva Pharmaceutical Industries Ltd., priority 2013, published 2016).

Tests used:
[1] = test system: relapsing-remitting multiple sclerosis (RRMS); conditions: CARE-MS I, vs interferon beta-1a
[2] = test system: first-line treatment-refractory RRMS; conditions: CARE-MS II
[3] = test system: multiple sclerosis patients; conditions: human, in vivo
[4] = in vivo
[5] = test system: genes related to antigen presentation and corresponding inflammatory pathways; conditions: mainly via the NFkB pathway
[6] = test system: MS

Compound	relapse ([1]; 12 mg/day IV 5 days at Month 0, 3 days at Month 12)	disability endpoints [1]	accumulation of disability [2]	relapse rates [2]	depletion repletion pattern for T cells, B cells and monocytes [3]	effect on inflammatory axis [3]	oral bioavailability [4]	suppression of genes related to antigen presentation and corresponding inflammatory pathways [5]	neurodegeneration and non-relapse-dependent disability progression ([6]; in MS)	Confirmed Disease Progression (CDP) ([6]; unexplained by inflammatory markers)
Alemtuzumab: recombinant DNA-derived humanized monoclonal IgGlx antibody raised against CD52	reduction of relapse	did not show benefit	sustain accumulation of disability	reduce relapse rates	well characterized depletion repletion pattern	large and sustained				
CCN(C(=O)c1c(O)c2c(Cl)cccc2n(C)c1=O)c1ccccc1 [Laquinimod, 5-chloro-N-ethyl-4-hydroxy-1-methyl-2-oxo-N-phenyl-1,2-dihydroquinoline-3-carboxamide]							high	induced suppression	showed potential for slowing neurodegeneration and reducing non-relapse-dependent disability progression	sustain Confirmed Disease Progression (CDP)
